Legend:
Rattus norvegicus [1] = assay: Distribution of the radioiodinated compound expressed as percent dose per gram, in heart of unfasted rats after 5 mins of intravenous administration (11.5 uCi/animal); value ranges from 0.85-1.13 % dose/g; type: ADME, organism-based; details: in vivo
Rattus norvegicus [2] = assay: Distribution of the radioiodinated compound expressed as percent dose per gram, in liver of unfasted rats after 60 mins of intravenous administration (11.5 uCi/animal); value ranges from 0.61-0.81 % dose/g; type: ADME, organism-based; details: in vivo, 1 h
Rattus norvegicus [3] = assay: Distribution of the radioiodinated compound expressed as percent dose per gram, in brain of unfasted rats after 5 mins of intravenous administration (11.5 uCi/animal); value ranges from 2.57-3.59 % dose/g; type: ADME, organism-based; details: in vivo
Rattus norvegicus [4] = species: Rattus norvegicus; assay: Specific activity of the radioiodinated compound was determined in rats; type: functional
Rattus norvegicus [5] = assay: Distribution of the radioiodinated compound expressed as percent dose per gram, in blood of unfasted rats after 30 mins of intravenous administration (11.5 uCi/animal); value ranges from 0.06-0.63 % dose/g; type: ADME, organism-based; details: in vivo, 0.5 h
Rattus norvegicus [6] = assay: Distribution of the radioiodinated compound expressed as percent dose per gram, in heart of unfasted rats after 30 mins of intravenous administration (11.5 uCi/animal); value ranges from 0.06-0.53 % dose/g; type: ADME, organism-based; details: in vivo, 0.5 h
Rattus norvegicus [7] = assay: Distribution of the radioiodinated compound expressed as percent dose per gram, in thyroid of unfasted rats after 5 mins of intravenous administration (11.5 uCi/animal); value ranges from 7.87-16.51 % dose/g; type: ADME, organism-based, Thyroid gland; details: in vivo
Rattus norvegicus [8] = assay: Distribution of the radioiodinated compound expressed as percent dose per organ, in thyroid of unfasted rats after 30 mins of intravenous administration (11.5 uCi/animal); value ranges from 0.05-0.38 % dose/g; type: ADME, organism-based, Thyroid gland; details: in vivo, 0.5 h
Rattus norvegicus [9] = assay: Distribution of the radioiodinated compound expressed as percent dose per organ, in thyroid of unfasted rats after 5 mins of intravenous administration (11.5 uCi/animal); value ranges from 0.08-0.17 % dose/g; type: ADME, organism-based, Thyroid gland; details: in vivo
Rattus norvegicus [10] = assay: Distribution of the radioiodinated compound expressed as percent dose per gram, in brain of unfasted rats after 60 mins of intravenous administration (11.5 uCi/animal); value ranges from 0.81-1.08 % dose/g; type: ADME, organism-based; details: in vivo, 1 h
Rattus norvegicus [11] = assay: Distribution of the radioiodinated compound expressed as percent dose per gram, in lungs of unfasted rats after 60 mins of intravenous administration (11.5 uCi/animal); value ranges from 1.87-2.12 % dose/g; type: ADME, organism-based, Lung; details: in vivo, 1 h
Rattus norvegicus [12] = assay: Distribution of the radioiodinated compound expressed as percent dose per gram, in heart of unfasted rats after 60 mins of intravenous administration (11.5 uCi/animal); value ranges from 0.33-0.42 % dose/g; type: ADME, organism-based; details: in vivo, 1 h
Rattus norvegicus [13] = assay: Distribution of the radioiodinated compound expressed as percent dose per gram, in liver of unfasted rats after 30 mins of intravenous administration (11.5 uCi/animal); value ranges from 0.08-0.90 % dose/g; type: ADME, organism-based; details: in vivo, 0.5 h
Rattus norvegicus [14] = assay: Distribution of the radioiodinated compound expressed as percent dose per gram, in brain of unfasted rats after 30 mins of intravenous administration (11.5 uCi/animal); value ranges from 0.16-1.76 % dose/g; type: ADME, organism-based; details: in vivo, 0.5 h
Rattus norvegicus [15] = assay: Distribution of the radioiodinated compound expressed as percent dose per gram, in liver of unfasted rats after 5 mins of intravenous administration (11.5 uCi/animal); value ranges from 1.64-2.38 % dose/g; type: ADME, organism-based; details: in vivo
Rattus norvegicus [16] = assay: Distribution of the radioiodinated compound expressed as percent dose per gram, in thyroid of unfasted rats after 30 mins of intravenous administration (11.5 uCi/animal); value ranges from 5.03-36.88 % dose/g; type: ADME, organism-based, Thyroid gland; details: in vivo, 0.5 h
Rattus norvegicus [17] = assay: Distribution of the radioiodinated compound expressed as percent dose per gram, in lungs of unfasted rats after 30 mins of intravenous administration (11.5 uCi/animal); value ranges from 0.51-3.71 % dose/g; type: ADME, organism-based, Lung; details: in vivo, 0.5 h
Rattus norvegicus [18] = assay: Distribution of the radioiodinated compound expressed as percent dose per gram, in kidney of unfasted rats after 5 mins of intravenous administration (11.5 uCi/animal); value ranges from 2.12-3.14 % dose/g; type: ADME, organism-based; details: in vivo
Rattus norvegicus [19] = assay: Distribution of the radioiodinated compound expressed as percent dose per gram, in kidney of unfasted rats after 30 mins of intravenous administration (11.5 uCi/animal); value ranges from 0.15-1.43 % dose/g; type: ADME, organism-based; details: in vivo, 0.5 h
Rattus norvegicus [20] = assay: Distribution of the radioiodinated compound expressed as percent dose per gram, in kidney of unfasted rats after 60 mins of intravenous administration (11.5 uCi/animal); value ranges from 0.74-0.85 % dose/g; type: ADME, organism-based; details: in vivo, 1 h
Rattus norvegicus [21] = assay: Distribution of the radioiodinated compound expressed as percent dose per gram, in lungs of unfasted rats after 5 mins of intravenous administration (11.5 uCi/animal); value ranges from 5.92-8.51% dose/g; type: ADME, organism-based, Lung; details: in vivo
Rattus norvegicus [22] = assay: Distribution of the radioiodinated compound expressed as percent dose per gram, in blood of unfasted rats after 60 mins of intravenous administration (11.5 uCi/animal); value ranges from % dose/g; type: ADME, organism-based; details: in vivo, 1 h
Rattus norvegicus [23] = assay: Distribution of the radioiodinated compound expressed as percent dose per organ, in thyroid of unfasted rats after 60 mins of intravenous administration (11.5 uCi/animal); value ranges from 0.99-1.40 % dose/g; type: ADME, organism-based, Thyroid gland; details: in vivo, 1 h
Rattus norvegicus [24] = assay: Distribution of the radioiodinated compound expressed as percent dose per gram, in blood of unfasted rats after 5 mins of intravenous administration (11.5 uCi/animal); value ranges from 0.28-0.37% dose/g; type: ADME, organism-based; details: in vivo
Rattus norvegicus [25] = assay: Distribution of the radioiodinated compound expressed as percent dose per gram, in thyroid of unfasted rats after 60 mins of intravenous administration (11.5 uCi/animal); value ranges from 31.90-39.98 % dose/g; type: ADME, organism-based, Thyroid gland; details: in vivo, 1 h

SMILES: CC(C)NC(C)Cc1ccc(I)s1 (racemic)
- Distribution (Rattus norvegicus [1]): 0.94 % dose g-1
- Distribution (Rattus norvegicus [2]): 0.07 % dose g-1
- Distribution (Rattus norvegicus [3]): 3.18 % dose g-1
- Activity (Rattus norvegicus [4]): 40 mCi animal-1
- Distribution (Rattus norvegicus [5]): 0.49 % dose g-1
- Distribution (Rattus norvegicus [6]): 0.42 % dose g-1
- Distribution (Rattus norvegicus [7]): 12.51 % dose g-1
- Distribution (Rattus norvegicus [8]): 0.28 % dose organ-1
- Distribution (Rattus norvegicus [9]): 0.13 % dose organ-1
- Distribution (Rattus norvegicus [10]): 0.95 % dose g-1
- Distribution (Rattus norvegicus [11]): 1.97 % dose g-1
- Distribution (Rattus norvegicus [12]): 0.37 % dose g-1
- Distribution (Rattus norvegicus [13]): 0.71 % dose g-1
- Distribution (Rattus norvegicus [14]): 1.37 % dose g-1
- Distribution (Rattus norvegicus [15]): 2.06 % dose g-1
- Distribution (Rattus norvegicus [16]): 26.26 % dose g-1
- Distribution (Rattus norvegicus [17]): 2.76 % dose g-1
- Distribution (Rattus norvegicus [18]): 2.72 % dose g-1
- Distribution (Rattus norvegicus [19]): 1.04 % dose g-1
- Distribution (Rattus norvegicus [20]): 0.79 % dose g-1
- Distribution (Rattus norvegicus [21]): 7.01 % dose g-1
- Distribution (Rattus norvegicus [22]): 0.6 % dose g-1
- Distribution (Rattus norvegicus [23]): 1.24 % dose organ-1
- Distribution (Rattus norvegicus [24]): 0.31 % dose g-1
- Distribution (Rattus norvegicus [25]): 36.45 % dose g-1

Reference: ChEMBL document CHEMBL1126144, “Synthesis and evaluation of radioiodinated 2-(2(RS)-aminopropyl)-5- iodothiophenes as brain imaging agents” (J Med Chem, 1992)
